# According to patent publication US11472807B2, “Purine derivatives for use as medicament and for use in treating neurodegenerative or neuro-inflammatory disorders” (COMMISSARIAT À L'ENERGIE ATOMIQUE ET AUX ENERGIES …, priority 2017, dated 2022):
# Tests used:
# [1] = test system: amyloid precursor protein (APP); test: APP protein expression in neuronal primary cultures (Western blot); type: cell-based; settings: hippocampal neurons, 100 μM, 18 h
# Protocol: FIG. 8. Plots illustrating the effect of Aftin-5 on APP protein expression in neuronal primary cultures. Culture medium of hippocampal neurons was replaced by incubation medium containing Aftin-5 (100 μM) or vehicle (0.1% DMSO). 18 h later, APP protein in lysate was quantified by Western blotting with anti-APP polyclonal antibody (Millipore). The Western blots were quantified by densitometric analysis. Relative APP protein expression was expressed (Aftin-5) as comparison with the control condition (vehicle; Ctrl). Data expressed as means+/−SEM from one experiment with n=5 wells/condition.
# Hippocampi and cortex were dissected in HBSS containing 5 mM glucose (dissection medium). […] Cells were counted and seeded at a density of 22,000 per cm^2 for hippocampal neurons and 10^5 per cm^2 for cortical neurons into 24 wells culture plates (Costar) in plating medium (DMEM medium containing 10% heat-inactivated horse serum (Life Technologies)). […]
# Cells were lysed in freshly prepared lysis buffer containing in mM: Tris-HCl 50, EDTA 2, EGTA 2, NaCl 100, SDS 0.2%, Triton X-100 1%, proteases inhibitors (Roche Protease Inhibitor Cocktail #04693116001), phosphatases inhibitors (in mM: ammonium molybdate 0.1, β-glycerophosphate 20, NaF 50, Na-pyrophosphate 10, Orthovanadate 1). Protein concentration was measured by the Bradford assay and Laemmli buffer was added to each lysate. […]
# [2] = test system: TNF-α, IL-1β and IL-6 mRNA; test: Cytokine mRNA in OHSC from transgenic 3×Tg-AD mice (RT-qPCR); type: cell-based, transgenic Tau mice (3×Tg-AD); settings: OHSC from transgenic mice overexpressing P-Tau, 50-150 μM, 10 days, vs vehicle
# Protocol: FIG. 11. Plots illustrating the effect of Aftin-5 mediated attenuation of TNF-α (A) and IL-1β (B) and IL-6 (C) in organotypic hippocampal slice cultures from wild type mice (C57BI/6J) and transgenic Tau mice (3×Tg-AD). 3 Tg organotypic hippocampal slice cultures media were replaced by incubation medium containing Aftin-5 at 50 μM (A50), 100 μM (A100) and 150 μM (A150) or vehicle (0.1% DMSO; Veh). After chronic treatment (10 days) total mRNA in lysate was isolated and purified, cDNAs were then synthesized from […] of total mRNA. cDNAs were amplified by quantitative RT-PCR and the relative expression of specific genes was normalized to the housekeeping gene HPRT1 (2^−ΔCt). […] Data expressed as means+/−SEM (n=2-6 wells/condition) from q=2 independent experiments with n=2-6 inserts/conditions and 10 slices/insert. […]
# The impact of Aftin-5 on gene expression of different biomarkers was determined by measuring mRNA levels of selected BDNF, CREB, PS95, INS Receptor/IGF-1 receptor, IL-1β, IL-6 in OHSC treated chronically with Aftin-5 or in a total brain from mice exposed to Aftin-5 at either 8 or 30 mg/Kg. […] Threshold cycles (Ct) of target gene and cyclophilin A (Ppia−control housekeeping gene) were recorded and gene expression was calculated as 2^−ΔΔCt(ΔΔCt=ΔCttreated−ΔCtcontrol, ΔCt=Cttarget−CtPpia). […]
compound,measurement,setting,value
CC[C@H](CO)Nc1nc(N(C)c2ccccc2)c2ncn(C(C)C)c2n1 [Aftin-5],level of APP,[1],does not change
same,"cytokine-mRNA synthesis (TNF-α, IL-1β, IL-6)",[2],decreases
